Measurements: patent US20140274883A1, “NOVEL ANTIVIRAL COMPOUNDS FROM MARINE EXTRACTS” (priority 2008, published 2014)

Test system: influenza A/Wyoming/03/2003 (H3N2)
Experiment: Plaque reduction assay in MDCK cell monolayers
Assay type: cell-based, influenza virus
Conditions: 5 μg/mL drug control, 72 h

In the case of `NC(=O)c1ncn([C@@H]2O[C@H](CO)[C@@H](O)[C@H]2O)n1` [Ribavirin, ribavirin], the plaque formation is reported as “completely inhibits the formation of plaques”.
